The values below are quoted from earlier work in article PMC5988656, “Phase I studies of AZD1208, a proviral integration Moloney virus kinase inhibitor in solid and haematological cancers” (British Journal of Cancer, 2018).

For the data set, the system named is AML cell lines. Particulars: cited from earlier work.

In the case of `N[C@@H]1CCCN(c2c(/C=C3\SC(=O)NC3=O)cccc2-c2ccccc2)C1` [AZD1208], the “Effect on cell cycle and apoptosis” value is “induced cell cycle arrest and apoptosis”.
